Tests used:
[1] = molecular target: T1, human recombinant serotonin (5-Hydroxytryptamine) 5-HT6 receptor (Homo sapiens, UniProt P50406); experiment: Serotonin 5-HT6 radioligand binding ([3H]LSD); design: Inhibition of ligand binding, Ser. 5-HT6: concentration or dose not given beside the values; details: percent inhibition of specific binding
T1 construct: expressed in transfected cells; host or cells: human HeLa cells
From the text: Receptor proteins were filtered and washed, the filters were then counted to determine [3H]LSD specifically bound. […] Biochemical assay results are presented as the percent inhibition of specific binding in Table 6.

[2] = molecular target: T2, human recombinant adrenergic α2B receptor (Homo sapiens, UniProt P18089); experiment: Adrenergic α2B radioligand binding ([3H]Rauwolscine); design: Inhibition of ligand binding, Adren. alpha2B: concentration or dose not given beside the values; details: percent inhibition of specific binding
T2 construct: expressed in transfected cells; host or cells: CHO-K1 cells
T2 sequence (P18089 1-450): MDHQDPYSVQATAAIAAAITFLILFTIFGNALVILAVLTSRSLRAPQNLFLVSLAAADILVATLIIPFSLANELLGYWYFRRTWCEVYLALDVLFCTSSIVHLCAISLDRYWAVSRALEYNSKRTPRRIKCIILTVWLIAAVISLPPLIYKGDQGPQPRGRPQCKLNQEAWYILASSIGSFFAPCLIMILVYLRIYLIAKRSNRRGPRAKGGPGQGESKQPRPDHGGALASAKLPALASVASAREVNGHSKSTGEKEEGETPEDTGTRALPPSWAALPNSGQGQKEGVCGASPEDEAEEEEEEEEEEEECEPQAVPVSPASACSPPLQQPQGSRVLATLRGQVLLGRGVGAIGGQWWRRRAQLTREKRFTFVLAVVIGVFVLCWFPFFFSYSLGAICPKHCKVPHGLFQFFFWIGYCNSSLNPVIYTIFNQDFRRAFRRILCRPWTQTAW
Outline: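 Incubation ran 60 minutes at 25 °C in modified Tris-HCl buffer (50 mM, pH 7.4, 12.5 mM MgCl2, 1 mM EDTA, 0.2% BSA) using CHO-K1-expressed human receptor.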

[3] = molecular target: T3, human recombinant serotonin (5-Hydroxytryptamine) 5-HT2A receptor (Homo sapiens, UniProt P28223); experiment: Serotonin 5-HT2A radioligand binding ([3H]Ketanserin); details: percent inhibition of specific binding
T3 construct: expressed in transfected cells; host or cells: CHO-K1 cells
T3 sequence (P28223 whole entry): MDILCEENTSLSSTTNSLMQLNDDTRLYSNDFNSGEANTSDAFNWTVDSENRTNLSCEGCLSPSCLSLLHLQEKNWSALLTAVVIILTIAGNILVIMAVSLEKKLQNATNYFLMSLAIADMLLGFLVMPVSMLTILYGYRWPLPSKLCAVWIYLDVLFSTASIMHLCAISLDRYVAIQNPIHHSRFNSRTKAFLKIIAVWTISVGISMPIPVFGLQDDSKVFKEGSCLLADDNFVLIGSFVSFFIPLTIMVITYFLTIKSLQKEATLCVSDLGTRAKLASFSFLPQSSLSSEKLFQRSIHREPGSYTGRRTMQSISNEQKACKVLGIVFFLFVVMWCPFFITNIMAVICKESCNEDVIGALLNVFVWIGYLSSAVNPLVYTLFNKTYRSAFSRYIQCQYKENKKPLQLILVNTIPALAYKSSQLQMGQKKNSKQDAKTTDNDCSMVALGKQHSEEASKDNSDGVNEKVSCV
Protocol: Compounds of the invention were incubated with 0.5 nM [^3H]Ketanserin for 60 minutes at 25° C. Non-specific binding was estimated in the presence of 1 μM Mianserin. Receptor proteins were filtered and washed, the filters were then counted to determine [^3H]Ketanserin specifically bound. […] Biochemical assay results are presented as the percent inhibition of specific binding in Table 6.

[4] = molecular target: T4, human recombinant serotonin (5-Hydroxytryptamine) 5-HT2C receptor (Homo sapiens, UniProt P28335); experiment: Serotonin 5-HT2C radioligand binding ([3H]Mesulergine); design: Inhibition of ligand binding, Ser. 5-HT2C: concentration or dose not given beside the values; details: percent inhibition of specific binding
T4 construct: expressed in transfected cells; host or cells: CHO-K1 cells
T4 sequence (P28335 33-458): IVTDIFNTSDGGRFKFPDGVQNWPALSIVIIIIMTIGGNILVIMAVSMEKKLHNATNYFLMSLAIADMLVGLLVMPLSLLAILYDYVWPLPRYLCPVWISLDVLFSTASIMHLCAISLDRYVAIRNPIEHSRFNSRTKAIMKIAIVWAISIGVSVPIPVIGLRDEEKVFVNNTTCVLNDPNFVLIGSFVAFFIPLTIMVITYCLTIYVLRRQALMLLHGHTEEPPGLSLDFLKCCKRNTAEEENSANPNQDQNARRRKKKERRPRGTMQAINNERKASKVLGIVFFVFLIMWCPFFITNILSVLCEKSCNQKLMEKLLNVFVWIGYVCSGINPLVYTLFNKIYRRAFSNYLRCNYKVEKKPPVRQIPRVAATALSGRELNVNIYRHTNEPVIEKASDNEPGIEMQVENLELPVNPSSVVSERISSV
Protocol: Compounds of the invention were incubated with 1 nM [^3H]Mesulergine for 60 minutes at 25° C. Non-specific binding was estimated in the presence of 1 μM Mianserin. Receptor proteins were filtered and washed, the filters were then counted to determine [^3H]Mesulergine specifically bound. […] Biochemical assay results are presented as the percent inhibition of specific binding in Table 6.

[5] = molecular target: T5, human recombinant histamine H1 receptor (Homo sapiens, UniProt P35367); experiment: Histamine H1 radioligand binding ([3H]Pyrilamine); details: percent inhibition of specific binding; screened at 1 μM; read-out: Inhibition of ligand binding, Hist. H1
T5 construct: expressed in transfected cells; host or cells: CHO cells
T5 sequence (P35367 whole entry): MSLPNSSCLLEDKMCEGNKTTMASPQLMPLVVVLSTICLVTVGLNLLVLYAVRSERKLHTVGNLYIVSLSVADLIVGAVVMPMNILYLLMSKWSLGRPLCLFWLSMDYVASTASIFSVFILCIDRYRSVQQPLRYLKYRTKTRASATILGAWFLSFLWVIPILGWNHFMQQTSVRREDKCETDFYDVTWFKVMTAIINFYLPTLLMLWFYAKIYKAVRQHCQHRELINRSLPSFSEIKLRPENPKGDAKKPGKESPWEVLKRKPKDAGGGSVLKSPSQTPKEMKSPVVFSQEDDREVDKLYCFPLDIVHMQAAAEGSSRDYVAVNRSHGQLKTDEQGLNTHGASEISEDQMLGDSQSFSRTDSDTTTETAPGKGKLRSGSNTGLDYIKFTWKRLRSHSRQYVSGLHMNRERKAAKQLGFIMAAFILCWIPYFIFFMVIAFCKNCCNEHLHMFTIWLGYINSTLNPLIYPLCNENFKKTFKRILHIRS
Outline: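 CHO-expressed receptor in modified Tris-HCl buffer (50 mM, pH 7.4; 2 mM MgCl2, 100 mM NaCl, 250 mM sucrose); bound ligand measured after filtration and washing.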

T1 sequence (P50406 whole entry): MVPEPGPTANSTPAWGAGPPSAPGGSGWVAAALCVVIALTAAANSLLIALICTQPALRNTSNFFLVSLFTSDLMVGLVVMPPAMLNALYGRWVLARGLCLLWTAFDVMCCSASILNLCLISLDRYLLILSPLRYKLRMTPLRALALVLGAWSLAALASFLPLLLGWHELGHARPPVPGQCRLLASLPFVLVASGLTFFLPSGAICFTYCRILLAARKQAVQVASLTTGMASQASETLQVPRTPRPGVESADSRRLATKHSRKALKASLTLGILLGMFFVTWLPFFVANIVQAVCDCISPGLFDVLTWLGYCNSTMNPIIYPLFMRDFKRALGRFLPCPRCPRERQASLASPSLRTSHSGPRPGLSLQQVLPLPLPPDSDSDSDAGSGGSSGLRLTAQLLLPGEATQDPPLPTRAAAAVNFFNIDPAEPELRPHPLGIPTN

Compound: Cc1ccc(CCn2c3c(c4cc(C(=O)O)ccc42)CNCC3)cn1 [Compound 274, 2,3,4,5-tetrahydro-5-(2-(6-methylpyridin-3-yl)ethyl)-1H-pyrido[4,3-b]indole-8-carboxylic acid]
- Inhibition of ligand binding, Ser. 5-HT6 [1]: −2%
- Inhibition of ligand binding, Adren. alpha2B [2]: 9%
- Inhibition of ligand binding, Ser. 5-HT2A [3]: 6%
- Inhibition of ligand binding, Ser. 5-HT2C [4]: −5%
- inhibition at 1 µM [5]: 1%

Compound: CCOC(=O)c1ccc(CCn2c3c(c4cc(C)ccc42)CN(C)CC3)cn1 [Compound 275, ethyl 5-(2-(1,2,3,4-tetrahydro-2,8-dimethylpyrido[4,3-b]indol-5-yl)ethyl)pyridine-2-carboxylate]
- Inhibition of ligand binding, Ser. 5-HT6 [1]: 56%
- Inhibition of ligand binding, Adren. alpha2B [2]: 92%
- Inhibition of ligand binding, Ser. 5-HT2A [3]: 39%
- Inhibition of ligand binding, Ser. 5-HT2C [4]: 31%
- inhibition at 1 µM [5]: 92%

Compound: CN1CCc2c(c3cc(Cl)ccc3n2CC(=O)N2CCS(=O)(=O)CC2)C1 [Compound 295]
- Inhibition of ligand binding, Ser. 5-HT6 [1]: −1%
- Inhibition of ligand binding, Adren. alpha2B [2]: 18%
- Inhibition of ligand binding, Ser. 5-HT2A [3]: 0%
- Inhibition of ligand binding, Ser. 5-HT2C [4]: −19%
- inhibition at 1 µM [5]: -3%

Compound: CN1CCc2c(c3cc(Cl)ccc3n2CC(=O)N2CC[S+]([O-])CC2)C1 [Compound 296, 2-(8-Chloro-2-methyl-1,2,3,4-tetrahydro-pyrido[4,3-b]indol-5-yl)-1-(1-oxo-1l4-thiomorpholin-4-yl)-ethanone]
- Inhibition of ligand binding, Ser. 5-HT6 [1]: 3%
- Inhibition of ligand binding, Adren. alpha2B [2]: −8%
- Inhibition of ligand binding, Ser. 5-HT2A [3]: 11%
- Inhibition of ligand binding, Ser. 5-HT2C [4]: 2%
- inhibition at 1 µM [5]: 36%

Compound: Cc1ccc2c(c1)c1c(n2CCc2cnc(C)cn2)CCN(C)C1 [Compound 322, 2,8-dimethyl-5-(2-(5-methylpyrazin-2-yl)ethyl)-2,3,4,5-tetrahydro-1H-pyrido[4,3-b]indole]
- Inhibition of ligand binding, Ser. 5-HT6 [1]: 75%
- Inhibition of ligand binding, Adren. alpha2B [2]: 115%
- Inhibition of ligand binding, Ser. 5-HT2A [3]: 64%
- Inhibition of ligand binding, Ser. 5-HT2C [4]: 69%
- inhibition at 1 µM [5]: 89%

Compound: Cc1ccc2c(c1)c1c(n2CCc2cnc(C)nc2)CCN(C)C1 [Compound 323, 2,3,4,5-tetrahydro-2,8-dimethyl-5-(2-(2-methylpyrimidin-5-yl)ethyl)-1H-pyrido[4,3-b]indole]
- Inhibition of ligand binding, Ser. 5-HT6 [1]: 69%
- Inhibition of ligand binding, Adren. alpha2B [2]: 62%
- Inhibition of ligand binding, Ser. 5-HT2A [3]: 16%
- Inhibition of ligand binding, Ser. 5-HT2C [4]: 20%
- inhibition at 1 µM [5]: 93%

Compound: CN1CCc2c(c3cc(Cl)ccc3n2CCCc2ccc(C(F)(F)F)nc2)C1 [Compound 324, 8-chloro-5-(3-(6-(trifluoromethyl)pyridin-3-yl)propyl)-2,3,4,5-tetrahydro-2-methyl-1H-pyrido[4,3-b]indole]
- Inhibition of ligand binding, Ser. 5-HT6 [1]: 93%
- Inhibition of ligand binding, Adren. alpha2B [2]: 98%
- Inhibition of ligand binding, Ser. 5-HT2A [3]: 86%
- Inhibition of ligand binding, Ser. 5-HT2C [4]: 57%
- inhibition at 1 µM [5]: 101%

Compound: CC1CCN(C(=O)CCn2c3c(c4cc(Cl)ccc42)CN(C)CC3)CC1 [Compound 325, 3-(8-chloro-1,2,3,4-tetrahydro-2-methylpyrido[4,3-b]indol-5-yl)-1-(4-methylpiperidin-1-yl)propan-1-one]
- Inhibition of ligand binding, Ser. 5-HT6 [1]: 41%
- Inhibition of ligand binding, Adren. alpha2B [2]: 58%
- Inhibition of ligand binding, Ser. 5-HT2A [3]: 53%
- Inhibition of ligand binding, Ser. 5-HT2C [4]: 50%
- inhibition at 1 µM [5]: 90%

Compound: CN1CCc2c(c3cc(Cl)ccc3n2CCC(=O)N2CCCCC2)C1 [Compound 326, 3-(8-chloro-1,2,3,4-tetrahydro-2-methylpyrido[4,3-b]indol-5-yl)-1-(piperidin-1-yl)propan-1-one]
- Inhibition of ligand binding, Ser. 5-HT6 [1]: 26%
- Inhibition of ligand binding, Adren. alpha2B [2]: 52%
- Inhibition of ligand binding, Ser. 5-HT2A [3]: 27%
- Inhibition of ligand binding, Ser. 5-HT2C [4]: 31%
- inhibition at 1 µM [5]: 47%

Compound: CN1CCc2c(c3cc(Cl)ccc3n2CCC(=O)N2CCOCC2)C1 [Compound 328, 3-(8-chloro-1,2,3,4-tetrahydro-2-methylpyrido[4,3-b]indol-5-yl)-1-morpholinopropan-1-one]
- Inhibition of ligand binding, Ser. 5-HT6 [1]: 29%
- Inhibition of ligand binding, Adren. alpha2B [2]: 21%
- Inhibition of ligand binding, Ser. 5-HT2A [3]: 46%
- Inhibition of ligand binding, Ser. 5-HT2C [4]: 29%
- inhibition at 1 µM [5]: 56%

Compound: CN1CCc2c(c3ccccc3n2CCc2ccccn2)C1 [Compound 329, 2,3,4,5-tetrahydro-2-methyl-5-(2-(pyridin-2-yl)ethyl)-1H-pyrido[4,3-b]indole]
- Inhibition of ligand binding, Ser. 5-HT6 [1]: 15%
- Inhibition of ligand binding, Adren. alpha2B [2]: 68%
- Inhibition of ligand binding, Ser. 5-HT2A [3]: 70%
- Inhibition of ligand binding, Ser. 5-HT2C [4]: 54%
- inhibition at 1 µM [5]: 18%

Compound: Cc1ccc2c(c1)c1c(n2CC(=O)N2CCOCC2)CCN(C)C1 [Compound 330, 2-(1,2,3,4-tetrahydro-2,8-dimethylpyrido[4,3-b]indol-5-yl)-1-morpholinoethanone]
- Inhibition of ligand binding, Ser. 5-HT6 [1]: 19%
- Inhibition of ligand binding, Adren. alpha2B [2]: 6%
- Inhibition of ligand binding, Ser. 5-HT2A [3]: 14%
- Inhibition of ligand binding, Ser. 5-HT2C [4]: 17%
- inhibition at 1 µM [5]: 8%

Compound: Cc1ccc2c(c1)c1c(n2CCCc2ccc(C(F)(F)F)nc2)CCN(C)C1 [Compound 331, 5-(3-(6-(trifluoromethyl)pyridin-3-yl)propyl)-2,3,4,5-tetrahydro-2,8-dimethyl-1H-pyrido[4,3-b]indole]
- Inhibition of ligand binding, Ser. 5-HT6 [1]: 100%
- Inhibition of ligand binding, Adren. alpha2B [2]: 105%
- Inhibition of ligand binding, Ser. 5-HT2A [3]: 93%
- Inhibition of ligand binding, Ser. 5-HT2C [4]: 72%
- inhibition at 1 µM [5]: 102%

Compound: CCOc1ccc(CCn2c3c(c4cc(C)ccc42)CN(C)CC3)cc1 [Compound 334, 5-[2-(4-Ethoxy-phenyl)-ethyl]-2,8-dimethyl-2,3,4,5-tetrahydro-1H-pyrido[4,3-b]indole]
- Inhibition of ligand binding, Ser. 5-HT6 [1]: 101%
- Inhibition of ligand binding, Adren. alpha2B [2]: 111%
- Inhibition of ligand binding, Ser. 5-HT2A [3]: 101%
- Inhibition of ligand binding, Ser. 5-HT2C [4]: 97%
- inhibition at 1 µM [5]: 99%

From patent US9096591B2, “Tetracyclic compounds” (Medivation Technologies, Inc., priority 2007, dated 2015)
